What was measured:
[1] = biological target: T1, Protein deacetylase HDAC6 (Homo sapiens, UniProt Q9UBN7)
T1 sequence (Q9UBN7 whole entry): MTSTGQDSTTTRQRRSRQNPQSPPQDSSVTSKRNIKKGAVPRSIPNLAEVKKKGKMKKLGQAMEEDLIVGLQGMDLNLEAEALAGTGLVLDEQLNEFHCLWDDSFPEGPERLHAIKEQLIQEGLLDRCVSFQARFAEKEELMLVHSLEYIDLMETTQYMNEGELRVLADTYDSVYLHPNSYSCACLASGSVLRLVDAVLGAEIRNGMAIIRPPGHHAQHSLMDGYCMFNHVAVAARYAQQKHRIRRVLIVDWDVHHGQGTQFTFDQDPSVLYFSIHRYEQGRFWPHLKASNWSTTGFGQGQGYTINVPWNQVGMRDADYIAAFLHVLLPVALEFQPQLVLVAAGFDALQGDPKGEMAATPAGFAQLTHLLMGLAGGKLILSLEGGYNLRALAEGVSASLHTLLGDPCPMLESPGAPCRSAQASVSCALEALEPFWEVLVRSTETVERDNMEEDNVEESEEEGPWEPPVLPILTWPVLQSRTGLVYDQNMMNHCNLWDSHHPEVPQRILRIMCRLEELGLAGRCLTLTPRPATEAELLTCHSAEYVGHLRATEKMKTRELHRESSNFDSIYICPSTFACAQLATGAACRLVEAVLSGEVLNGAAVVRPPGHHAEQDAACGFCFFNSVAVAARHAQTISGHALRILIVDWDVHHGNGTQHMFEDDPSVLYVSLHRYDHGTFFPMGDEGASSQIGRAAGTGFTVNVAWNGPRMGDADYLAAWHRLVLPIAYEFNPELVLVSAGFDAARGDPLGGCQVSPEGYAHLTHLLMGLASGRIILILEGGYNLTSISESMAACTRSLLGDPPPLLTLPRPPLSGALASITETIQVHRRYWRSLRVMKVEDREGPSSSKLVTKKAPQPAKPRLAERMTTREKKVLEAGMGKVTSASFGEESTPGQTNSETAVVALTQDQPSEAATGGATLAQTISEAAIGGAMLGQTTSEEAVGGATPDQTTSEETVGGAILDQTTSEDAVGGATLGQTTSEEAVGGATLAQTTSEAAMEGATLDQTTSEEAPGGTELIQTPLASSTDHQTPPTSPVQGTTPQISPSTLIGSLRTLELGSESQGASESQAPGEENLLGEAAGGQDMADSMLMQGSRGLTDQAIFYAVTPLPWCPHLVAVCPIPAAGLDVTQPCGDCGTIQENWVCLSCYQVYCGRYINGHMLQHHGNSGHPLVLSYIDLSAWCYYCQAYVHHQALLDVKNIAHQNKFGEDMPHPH

[2] = test system: Plasmodium falciparum; assay: Antimalarial activity against Plasmodium falciparum W2 by hypoxanthine uptake; assay type: functional, organism-based
[3] = test system: Plasmodium falciparum; assay: Antimalarial activity against Plasmodium falciparum TM90C2A by hypoxanthine uptake; assay type: functional, organism-based
[4] = biological target: Histone deacetylase 1 (Homo sapiens, UniProt Q13547)
[5] = biological target: Histone deacetylase 3 (Homo sapiens, UniProt O15379)
[6] = biological target: T2, Histone deacetylase 8 (Homo sapiens, UniProt Q9BY41)
T2 sequence (Q9BY41 whole entry): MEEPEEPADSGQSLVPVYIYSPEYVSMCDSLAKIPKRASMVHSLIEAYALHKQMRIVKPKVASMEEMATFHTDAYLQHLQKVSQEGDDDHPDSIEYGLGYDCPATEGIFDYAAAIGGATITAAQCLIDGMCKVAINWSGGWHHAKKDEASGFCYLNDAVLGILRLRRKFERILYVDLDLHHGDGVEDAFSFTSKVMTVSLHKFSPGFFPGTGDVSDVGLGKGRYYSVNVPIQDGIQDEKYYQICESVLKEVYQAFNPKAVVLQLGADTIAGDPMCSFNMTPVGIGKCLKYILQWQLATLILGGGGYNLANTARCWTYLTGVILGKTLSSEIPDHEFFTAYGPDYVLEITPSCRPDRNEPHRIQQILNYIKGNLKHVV

[7] = biological target: Histone deacetylase 2 (Homo sapiens, UniProt Q92769)
[8] = biological target: T3, Polyamine deacetylase HDAC10 (Homo sapiens, UniProt Q969S8)
T3 sequence (Q969S8 whole entry): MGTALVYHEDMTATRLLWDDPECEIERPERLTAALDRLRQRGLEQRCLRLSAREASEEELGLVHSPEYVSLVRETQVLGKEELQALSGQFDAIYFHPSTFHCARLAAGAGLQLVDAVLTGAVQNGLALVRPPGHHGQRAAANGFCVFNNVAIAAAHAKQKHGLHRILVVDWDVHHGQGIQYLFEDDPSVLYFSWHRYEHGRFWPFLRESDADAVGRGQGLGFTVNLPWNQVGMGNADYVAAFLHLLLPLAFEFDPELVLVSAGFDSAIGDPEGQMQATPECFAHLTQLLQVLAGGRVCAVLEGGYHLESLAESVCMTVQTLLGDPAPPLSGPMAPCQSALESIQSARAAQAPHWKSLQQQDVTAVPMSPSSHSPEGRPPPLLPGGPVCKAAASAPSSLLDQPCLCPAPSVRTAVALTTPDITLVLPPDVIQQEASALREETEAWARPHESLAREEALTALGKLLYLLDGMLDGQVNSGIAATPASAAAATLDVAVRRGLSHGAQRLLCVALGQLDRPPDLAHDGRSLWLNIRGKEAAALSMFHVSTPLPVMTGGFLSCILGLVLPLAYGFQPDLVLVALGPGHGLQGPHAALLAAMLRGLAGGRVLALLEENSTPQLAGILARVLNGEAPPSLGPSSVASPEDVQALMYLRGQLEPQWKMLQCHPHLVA

[9] = Selectivity for HDAC10 over HDAC1
[10] = Cytotoxicity against human Panc 04.03 cells after 72 hrs by MTT assay; assay type: functional, cell-based; conditions: Panc 04.03, 72 h
[11] = test system: Plasmodium falciparum; assay: microbe, parasite or virus in culture; conditions: TM91C235
Description: Antimalarial activity against Plasmodium falciparum TM91C235 by hypoxanthine uptake

[12] = Cytotoxicity against human SU 86.86 cells after 72 hrs by MTT assay; assay type: functional, cell-based; conditions: SU.86.86, 72 h
[13] = test system: Plasmodium falciparum; assay: Antimalarial activity against Plasmodium falciparum D6 by hypoxanthine uptake; assay type: functional, organism-based
[14] = Cytotoxicity against human Hup T3 cells after 72 hrs by MTT assay; assay type: functional, cell-based; conditions: HuP-T3, 72 h
[15] = test system: MIA PaCa-2; assay: Cytotoxicity against human Mia Paca2 cells after 72 hrs by MTT assay; assay type: functional, cell-based; conditions: MIA PaCa-2, 72 h
[16] = test system: BXPC-3; assay: Cytotoxicity against human BxPC3 cells after 72 hrs by MTT assay; assay type: functional, cell-based; conditions: BXPC-3, 72 h

Histone deacetylase 3, sequence (O15379 whole entry): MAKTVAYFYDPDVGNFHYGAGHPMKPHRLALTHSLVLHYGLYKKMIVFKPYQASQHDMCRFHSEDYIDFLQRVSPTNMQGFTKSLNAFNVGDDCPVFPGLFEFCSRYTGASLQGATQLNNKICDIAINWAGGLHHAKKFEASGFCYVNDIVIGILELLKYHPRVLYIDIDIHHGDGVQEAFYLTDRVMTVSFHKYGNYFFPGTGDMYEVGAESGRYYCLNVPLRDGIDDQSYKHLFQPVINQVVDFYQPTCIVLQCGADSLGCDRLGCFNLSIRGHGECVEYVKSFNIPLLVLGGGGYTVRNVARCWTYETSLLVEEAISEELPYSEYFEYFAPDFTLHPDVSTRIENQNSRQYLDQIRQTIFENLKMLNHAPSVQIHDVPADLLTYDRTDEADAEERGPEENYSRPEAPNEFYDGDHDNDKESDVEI
Histone deacetylase 2, sequence (Q92769 whole entry): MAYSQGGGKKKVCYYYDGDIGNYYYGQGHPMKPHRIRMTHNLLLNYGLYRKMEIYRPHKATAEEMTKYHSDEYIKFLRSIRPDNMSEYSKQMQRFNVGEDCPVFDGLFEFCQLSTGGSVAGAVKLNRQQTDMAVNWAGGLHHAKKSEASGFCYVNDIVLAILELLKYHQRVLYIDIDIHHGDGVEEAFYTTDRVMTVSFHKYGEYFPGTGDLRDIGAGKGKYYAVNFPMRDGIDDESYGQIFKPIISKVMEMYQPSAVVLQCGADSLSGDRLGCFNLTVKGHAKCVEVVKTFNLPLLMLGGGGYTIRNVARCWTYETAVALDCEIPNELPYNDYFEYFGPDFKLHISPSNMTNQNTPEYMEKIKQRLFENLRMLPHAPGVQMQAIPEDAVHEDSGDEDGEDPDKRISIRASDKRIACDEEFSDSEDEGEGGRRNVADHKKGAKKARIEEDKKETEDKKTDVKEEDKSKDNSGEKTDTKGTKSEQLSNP
Histone deacetylase 1, sequence (Q13547 whole entry): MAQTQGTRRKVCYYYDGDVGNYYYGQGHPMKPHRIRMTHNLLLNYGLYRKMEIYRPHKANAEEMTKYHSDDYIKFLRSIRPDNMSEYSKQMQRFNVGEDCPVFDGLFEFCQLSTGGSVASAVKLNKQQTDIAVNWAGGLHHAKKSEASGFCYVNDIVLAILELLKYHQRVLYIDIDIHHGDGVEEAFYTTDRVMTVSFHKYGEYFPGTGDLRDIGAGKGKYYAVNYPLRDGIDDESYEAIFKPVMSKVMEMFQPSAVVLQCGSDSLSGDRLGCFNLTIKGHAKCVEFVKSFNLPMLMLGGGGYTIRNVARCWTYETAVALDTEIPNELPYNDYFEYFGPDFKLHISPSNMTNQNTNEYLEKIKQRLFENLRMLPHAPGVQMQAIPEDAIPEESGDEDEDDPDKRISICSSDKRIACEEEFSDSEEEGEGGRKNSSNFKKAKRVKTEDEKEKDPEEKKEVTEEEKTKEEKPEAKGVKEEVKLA

Row | IC50 [1] [µM] | IC50 [2] [µM] | IC50 [3] [µM] | IC50 [4] [µM] | IC50 [5] [µM] | IC50 [6] [µM] | IC50 [7] [µM] | IC50 [8] [µM] | Ratio IC50 [9] | IC50 [11] [µM] | SMILES | IC50 [10] [µM] | IC50 [12] [µM] | IC50 [13] [µM] | IC50 [14] [µM] | IC50 [15] [µM] | IC50 [16] [µM]
1 | 0.0044 | 0.39 | 0.19 | 0.0692 | 0.0253 | 3.13 | 0.143 | 0.0865 | 0.8 | 0.11 | O=C(CCCCCCC(=O)Nc1ccc(-c2cn(CC(O)c3cccc(Br)c3)nn2)cc1)NO (centres undefined) | 10 | 12 | 0.08 | 12 | 0.6 | 18
2 | 0.0031 | > 1.2 | 0.3 | 0.0683 | 0.0097 | 0.79 | 0.124 | 0.0701 | 1 | 0.52 | O=C(CCCCCCC(=O)Nc1ccc(-c2cnnn2Cc2ccccc2)cc1)NO | 2 | 9 | 0.4 | 5 | 2 | 11
3 | 0.0038 | 0.59 | 0.21 | 0.0259 | 0.0058 | 0.529 | 0.124 | 0.0176 | 1.5 | 0.46 | O=C(CCCCCCC(=O)Nc1cccc(-c2cnnn2Cc2ccc(F)cc2)c1)NO | 9 | 8 | 0.3 | 5 | 2 | 11
4 | 0.0048 | 0.53 | 0.16 | 0.113 |  | 3.97 | 0.679 | 0.188 | 0.6 | 0.3 | O=C(CCCCCCC(=O)Nc1ccc(-c2cn(Cc3ccccc3)nn2)cc1)NO | 2 | 10 | 0.21 | 5 | < 1 | 9
5 | 0.0019 |  |  | 0.0978 | 0.0137 | 0.797 | 0.294 | 0.112 | 0.9 |  | O=C(CCCCCCC(=O)Nc1ccc(-c2cn(Cc3ccc(F)cc3)nn2)cc1)NO | 3 | 11 |  | 4 | < 0.5 | 22

Further lines, the compound ahead of its results:

Row | SMILES | IC50 [1] [µM] | IC50 [2] [µM] | IC50 [3] [µM] | IC50 [4] [µM] | IC50 [5] [µM] | IC50 [6] [µM] | IC50 [7] [µM] | IC50 [8] [µM] | Ratio IC50 [9] | IC50 [11] [µM] | IC50 [10] [µM] | IC50 [12] [µM] | IC50 [13] [µM] | IC50 [14] [µM] | IC50 [15] [µM] | IC50 [16] [µM]
6 | O=C(CCCCCCC(=O)Nc1cccc(-c2cnnn2CC(O)c2cccc(Br)c2)c1)NO (centres undefined) | 0.0028 | 0.38 | 0.12 | 0.0234 | 0.0042 | 0.406 | 0.116 | 0.0158 | 1.5 | 0.39 | 25 | 23 | 0.18 | 42 | 11 | 43
7 | O=C(CCCCCCC(=O)Nc1cccc(-c2cn(CC(O)c3cccc(Br)c3)nn2)c1)NO (centres undefined) | 0.0019 | 0.56 | 0.11 | 0.0149 | 0.0027 | 0.44 | 0.0644 | 0.013 | 1.1 | 0.26 | 14 | 12 | 0.11 | 11 | 0.8 | 11
8 | O=C(CCCCCCC(=O)Nc1cccc(-c2cnnn2Cc2ccccc2)c1)NO | 0.0033 | 0.6 | 0.15 | 0.0186 | 0.0045 | 0.433 | 0.112 | 0.0192 | 1 | 0.37 | 4 | 7 | 0.21 | 2 | 1 | 12
9 | O=C(CCCCCCC(=O)Nc1ccc(-c2cnnn2CC(O)c2cccc(Br)c2)cc1)NO (centres undefined) | 0.0042 | > 0.95 | 0.23 | 0.0699 | 0.0151 | 0.737 | 0.216 | 0.0748 | 0.9 | 0.39 | 44 | 42 | 0.23 | 46 | 37 | 25
10 | O[C@@H](c1cc(C(F)(F)F)nc2c(C(F)(F)F)cccc12)[C@H]1CCCCN1 [MEFLOQUINE] |  |  |  |  |  |  |  |  |  |  |  |  | 0.011 |  |  | 
11 | O=C(CCCCCCC(=O)Nc1cccc(-c2cnnn2-c2ccccc2)c1)NO | 0.0075 | 0.73 | 0.33 | 0.0334 | 0.0077 | 0.942 | 0.167 | 0.0245 | 1.4 | 0.5 | 2 | 4 | 0.32 | 8 | 3 | 10
12 | O=C(CCCCCCC(=O)Nc1ccccc1)NO [VORINOSTAT] |  |  |  |  |  |  |  |  |  |  |  |  |  | 0.8 |  | 
13 | O=C(CCCCCCC(=O)Nc1cccc(-c2cn(Cc3ccccc3)nn2)c1)NO | 0.0031 | 0.16 | 0.19 | 0.0145 | 0.0079 | 1.99 | 0.043 | 0.0185 | 0.8 | 0.22 | 2 | 2 | 0.14 | 1 | < 0.5 | 3
14 | O=C(CCCCCCC(=O)Nc1ccc(-c2cnnn2-c2ccccc2)cc1)NO | 0.0035 | 0.62 | 0.17 | 0.0705 | 0.012 | 0.518 | 0.146 | 0.0557 | 1.3 | 0.47 | 8 | 11 | 0.35 | 10 | 8 | 13

Reference: ChEMBL document CHEMBL1150413, “A series of potent and selective, triazolylphenyl-based histone deacetylases inhibitors with activity against pancreatic cancer cells and Plasmodium falciparum” (J Med Chem, 2008)
